Reference: US20250352554A1 (Neurelis, Inc., priority 2024, published 2025)
Read-outs that look alike come from different tables or passages of the source.

Details: saturated solution

Measured: Appearance

Cc1cc2c(s1)Nc1ccccc1N=C2N1CCN(C)CC1 [olanzapine, 2-methyl-4-(4-methyl-1-piperazinyl)-10H-thieno[2,3-b][1,5]benzodiazepine]
Clear amber solution: 20% Dimethylacetamide/80% PEG 200 | 40% Dimethylacetamide/60% PEG 200 | 100% PEG 200
